The values below come from PubChem BioAssay (NCI).

One may read the GI50 as the concentration giving 50% growth inhibition. One may read the TGI as the concentration giving total growth inhibition. Low readings indicate more potent growth arrest, high ones less potent growth arrest.

Several values for one entry are separate records, joined by “and”; a condition that tells them apart may be missing. Identical values can stand only once.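 96-well plates; 48 h exposure; 5 concentrations. Endpoints by linear interpolation between flanking doses. Not reached: highest tested concentration assigned. Abbreviation: GI50, concentration required for 50% inhibition of growth. TGI marks complete inhibition of growth.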

Some test systems named below: A498 renal; CAKI-1 renal; CCRF-CEM leukemia; HCC-2998 colon; HL-60(TB) leukemia; HT29 colon; K-562 leukemia; NCI-H226 lung; NCI-H460 lung; SK-MEL-28 melanoma.
Common to all, as to assay: DTP human tumour cell line panel, 48 h

In the case of `O=C(NCCNC1=CC(=O)c2nc3ccccc3c3ccnc1c23)c1cnccn1`, the GI50 in the experiment on A498 renal is greater than 100 µM; in the experiment with CAKI-1 renal, 15.8 µM; in the experiment with CCRF-CEM leukemia it was 1.94 µM; with HCC-2998 colon, 27.6 µM; in the experiment with HL-60(TB) leukemia it was 42.8 µM; with HT29 colon, 33 µM. The GI50 with K-562 leukemia was 33.6 µM; in the experiment on NCI-H226 lung, 90.7 µM; in the experiment on NCI-H460 lung, 18.4 µM; in the experiment on SK-MEL-28 melanoma it was 40.9 µM. In addition, the TGI is greater than 100 µM in the experiment with A498 renal; 50.9 µM in the experiment with CAKI-1 renal; greater than 100 µM in the experiment with CCRF-CEM leukemia; greater than 100 µM in the experiment with HCC-2998 colon; greater than 100 µM with HL-60(TB) leukemia; greater than 100 µM in the experiment with HT29 colon. Further, the TGI in the experiment with K-562 leukemia, with NCI-H226 lung, with NCI-H460 lung and in the experiment with SK-MEL-28 melanoma was greater than 100 µM in each case.

`Fc1nc(Sc2ncnc3nc[nH]c23)nc(-c2c3ccccc3c3sc4ccccc4n23)n1`: the TGI with A498 renal, with CAKI-1 renal, with CCRF-CEM leukemia, in the experiment with HCC-2998 colon, with HL-60(TB) leukemia and in the experiment with HT29 colon was greater than 100 µM throughout. Besides, the concentration for total growth inhibition (TGI) in the experiment on K-562 leukemia, with NCI-H226 lung, with NCI-H460 lung and with SK-MEL-28 melanoma was greater than 100 µM in each case.

Take `CC1(O)CC2C(CC1SCc1ccccc1)C2(C)C` (stereo not given): the TGI is 57.9 µM and 32.5 µM in the experiment with A498 renal; 32 µM and 25.2 µM with CAKI-1 renal; > 100 µM and 42.2 µM with CCRF-CEM leukemia; 50 µM and > 100 µM with HCC-2998 colon; > 100 µM and 33.8 µM with HL-60(TB) leukemia; 49.1 µM and 29.9 µM with HT29 colon. For the same molecule, the total growth inhibition concentration (TGI) is > 100 µM and 32.1 µM in the experiment on K-562 leukemia; 42.5 µM and 30.1 µM in the experiment with NCI-H226 lung; 57.8 µM and 27.7 µM with NCI-H460 lung; > 100 µM and 35.4 µM with SK-MEL-28 melanoma. The GI50 in the experiment with CCRF-CEM leukemia is 37.4 µM and 14.8 µM; with HCC-2998 colon, 24.1 µM and > 100 µM; in the experiment on HL-60(TB) leukemia, 28.3 µM and 10.2 µM; with K-562 leukemia it was 33.3 µM and 12.3 µM.

With `C#CCN(CCCOc1ccc(Cl)cc1Cl)CCCSC(=O)CCCCCN1/C(=C\C=C2/CCCC(/C=C/C3=[N+](CCCCCC(=O)[O-])c4ccccc4C3(C)C)=C2Cl)C(C)(C)c2ccccc21`, the GI50 was 1.31 µM in the experiment with A498 renal; 0.344 µM in the experiment on CCRF-CEM leukemia; 1.78 µM with HCC-2998 colon; 1.62 µM in the experiment with HL-60(TB) leukemia; 2.49 µM with HT29 colon; 0.667 µM with K-562 leukemia. Also, the GI50 with NCI-H226 lung is 1.72 µM; in the experiment on NCI-H460 lung, 1.77 µM; with SK-MEL-28 melanoma it was 0.708 µM. Also, the TGI is 4.12 µM in the experiment with A498 renal; 4.38 µM in the experiment on CCRF-CEM leukemia; 3.51 µM in the experiment on HCC-2998 colon; 4.79 µM in the experiment with HL-60(TB) leukemia; 6.47 µM in the experiment on HT29 colon; greater than 100 µM in the experiment on K-562 leukemia. The total growth inhibition concentration (TGI) is 4.11 µM in the experiment on NCI-H226 lung, 5.01 µM in the experiment on NCI-H460 lung and 2.43 µM in the experiment with SK-MEL-28 melanoma.

`O=C(/C=N/O)Nc1cccc(Cl)c1I`: the TGI with A498 renal, in the experiment with CAKI-1 renal, with CCRF-CEM leukemia, with HCC-2998 colon, with HL-60(TB) leukemia and in the experiment on HT29 colon was greater than 100 µM in each case. Also, the TGI with K-562 leukemia, in the experiment on NCI-H226 lung, in the experiment on NCI-H460 lung and in the experiment with SK-MEL-28 melanoma was greater than 100 µM throughout.

Regarding `Clc1ccc(/C=C/c2csnn2)cc1`, the TGI in the experiment with A498 renal, in the experiment with CAKI-1 renal, with CCRF-CEM leukemia, in the experiment with HCC-2998 colon, in the experiment on HL-60(TB) leukemia and in the experiment with HT29 colon was greater than 100 µM throughout. Also, the TGI with K-562 leukemia, with NCI-H226 lung, in the experiment with NCI-H460 lung and with SK-MEL-28 melanoma was greater than 100 µM each time.

For `CNc1ccc(CSc2ccc(C)cc2)cc1`, the 50% growth inhibitory concentration (GI50) was 0.178 µM in the experiment with A498 renal; 7.94 µM in the experiment on CAKI-1 renal; 0.676 µM with CCRF-CEM leukemia; 18.8 µM in the experiment with HCC-2998 colon; 1.32 µM in the experiment on HL-60(TB) leukemia; 21.7 µM in the experiment with HT29 colon. For the same molecule, the GI50 in the experiment on NCI-H226 lung was 3.43 µM; in the experiment with NCI-H460 lung, 25.3 µM; with SK-MEL-28 melanoma it was 20.3 µM. Besides, the total growth inhibition concentration (TGI) in the experiment on A498 renal was greater than 100 µM; in the experiment with CAKI-1 renal it was greater than 100 µM; in the experiment with CCRF-CEM leukemia, 12.2 µM; in the experiment with HCC-2998 colon it was 83.2 µM; in the experiment with HL-60(TB) leukemia, 4.28 µM; with HT29 colon it was 77.8 µM. Also, the concentration for total growth inhibition (TGI) in the experiment with NCI-H226 lung is 16.4 µM; in the experiment on NCI-H460 lung, greater than 100 µM; with SK-MEL-28 melanoma it was greater than 100 µM.

For the molecule `C=C1CCC2C(C)(CO)C(O)CCC2(C)C1C/C=C1\C(=O)OCC1O` (stereo not given), the TGI with A498 renal was 93.1 µM; in the experiment on CCRF-CEM leukemia, greater than 100 µM; with HCC-2998 colon, 50.6 µM; in the experiment on HL-60(TB) leukemia it was greater than 100 µM; in the experiment with HT29 colon, 25.8 µM; in the experiment with K-562 leukemia, greater than 100 µM. The concentration for total growth inhibition (TGI) was greater than 100 µM with NCI-H226 lung, 59.2 µM in the experiment on NCI-H460 lung and 27.3 µM in the experiment on SK-MEL-28 melanoma.

For `Nc1nc2c([nH]1)c1[nH]c3ccccc3c1c1[nH]c3ccccc3c21`, the GI50 with A498 renal is 18.8 µM; in the experiment with CAKI-1 renal, 16 µM; in the experiment on CCRF-CEM leukemia, 3.33 µM; in the experiment on HCC-2998 colon, 2.26 µM; in the experiment with HL-60(TB) leukemia it was 18.4 µM; in the experiment with HT29 colon, 5.5 µM. Also, the GI50 in the experiment with K-562 leukemia is 2.23 µM; in the experiment with NCI-H226 lung it was 19.8 µM; in the experiment on SK-MEL-28 melanoma it was 11.5 µM. Besides, the TGI in the experiment on A498 renal worked out at 35 µM; in the experiment on CAKI-1 renal it was 29.5 µM; in the experiment on CCRF-CEM leukemia, 12.4 µM; in the experiment with HCC-2998 colon it was 5.75 µM; in the experiment with HL-60(TB) leukemia, 38.1 µM; in the experiment on HT29 colon, 17.4 µM. Also, the TGI with K-562 leukemia stood at 5.09 µM; in the experiment with NCI-H226 lung it was 45.5 µM; in the experiment with SK-MEL-28 melanoma it was 23.7 µM.

Take `CCOC(=O)c1cnc2c(ccc3ncccc32)c1OCC`: the TGI in the experiment on A498 renal, in the experiment with CCRF-CEM leukemia, in the experiment with HCC-2998 colon, with HL-60(TB) leukemia, with HT29 colon and in the experiment on K-562 leukemia was greater than 100 µM in each case. The TGI in the experiment on NCI-H226 lung, in the experiment on NCI-H460 lung and with SK-MEL-28 melanoma was greater than 100 µM each time.

For the molecule `COc1cc2ccc(CC(=O)O)cc2cc1OC`, the TGI in the experiment on A498 renal, in the experiment on CAKI-1 renal, with CCRF-CEM leukemia, with HCC-2998 colon, in the experiment with HL-60(TB) leukemia and in the experiment on HT29 colon was greater than 100 µM in each case. The TGI in the experiment on K-562 leukemia, in the experiment with NCI-H226 lung and in the experiment on SK-MEL-28 melanoma was greater than 100 µM in each case.
